“Also recorded” adds a separate entry of the source.
Assays:
[1] = tested on: newborn neurons in the dentate gyrus; test: BrdU pulse-chase and doublecortin staining with oral dosing for 30 days; type: in vivo, mouse (C57/B6)
Method: FIG. 10A and FIG. 10B: Example 45 Compound enhances the survival of newborn neurons in the dentate gyrus. […] (FIG. 10B) Example 45 Compound enhances hippocampal neurogenesis by promoting survival of newborn neurons. Three month old wild type C57/B6 male mice were exposed to orally-delivered Example 45 Compound or vehicle for 30 days (n=5 animals/group), administered a single pulse of BrdU via IP injection (150 mg/kg), and then sacrificed 1 hour, 1 day, 5 days or 30 days later for immunohistochemical detection of BrdU incorporation into cells localized in the subgranular layer of the dentate gyrus. […] In this longer-term trial, BrdU+ cells were observed both in the SGZ and the granular layer of the dentate gyrus.
The nature of the cells produced in the subgranular zone of the dentate gyrus was investigated when Example 45 Compound was administered as follows. Animals were exposed to oral administration of Example 45 Compound for 30 days. Brain tissue was then prepared for immunohistochemical staining with an antibody to doublecortin (DCX), a microtubule-associated protein that serves as a marker of neurogenesis in the dentate gyrus by virtue of transient expression in newly formed neurons, but not glial cells, between the timing of their birth and final maturation (Brown et al., 2003).
Example 45 Compound-mediated neurogenesis was next investigated to see whether it was attributable to increased cell proliferation or protection of newborn cells from cell death during the time between their birth and eventual incorporation into the granular layer of the dentate gyrus. This was accomplished by comparing the ability of Example 45 Compound to enhance either short- or long-term increases in the incorporation of BrdU in the dentate gyrus (FIG. 10B). Animals exposed to orally-delivered Example 45 Compound or vehicle for 30 days were administered a single pulse of BrdU via IP injection. Short-term effects on neuron birth were monitored by sacrificing animals one hour post-BrdU injection, followed by fixation of the tissue, sectioning and immunohistochemical detection of BrdU incorporation into cells localized in the subgranular layer of the dentate gyrus. […] It is hypothesized that these cells represent mature neurons that have migrated into the granular layer, completed the differentiation process, and incorporated themselves into the dentate gyrus as properly wired neurons. Observations supportive of this interpretation will be presented in a subsequent section of this document. In summary, these experiments give evidence that Example 45 Compound enhances the formation of neurons in the mature hippocampus, and that its mode of action would appear to take place at some point subsequent to their birth.

[2] = tested on: cultured primary cortical neurons; test: Mitochondrial membrane potential (TMRM) after A23187 in cultured primary cortical neurons; type: cell-based; settings: rat E14 cortical neurons
Source text: (§1) FIG. 23: Example 45 Compound Preserves Mitochondrial Membrane Potential in Cultured Primary Cortical Neurons. Cortical neurons cultures from rats on embryonic day 14 were loaded with tetramethylrhodamine methyl ester (TMRM) dye after 6 days of maturation. […] The remaining panels are from cells that were exposed to the calcium ionophore A23187 at time zero. With vehicle-alone, cortical neuron mitochondrial membrane potential was rapidly lost after exposure to the ionophore. […] Results shown are representative of 10 fields analyzed in each of 2 experimental runs for all conditions.
as §1, with “It was also examined whether” for “FIG. 23:”, “preserves mitochondrial membrane potential” for “Preserves Mitochondrial Membrane Potential”, “cultured primary cortical neurons (FIG. 23).” for “Cultured Primary Cortical Neurons.”

HeLa cells = test: Toxicity to HeLa cells; type: cell-based
histamine receptor = test: Histamine receptor binding
[3] = tested on: hippocampal neurogenesis in the DG; test: Comparison of P7C3 compounds and antidepressant drugs: DG BrdU labeling after i.c.v. infusion; type: in vivo, mouse; settings: 10 μM i.c.v. for 7 days
Source text: The neuroprotective efficacies of both P7C3 and P7C3-A20 were next compared to currently marketed antidepressant medications, using screening conditions identical to those by which P7C3 was originally discovered. This experiment was based on the antidepressant actions of P7C3 and P7C3-A20 characterized here, and the dependence on hippocampal neurogenesis for behavioral efficacy of some marketed antidepressant medications in mice.
Proneurogenic efficacies in the DG of P7C3 and P7C3A20 were compared to those of vehicle (artificial cerebrospinal fluid) and several marketed antidepressant compounds (Sigma-Aldrich, St. Louis, Mo.) according to established methods. In brief, mice were housed individually in cages without running wheels or any form of environmental enrichment, in order to create an environment predicted to have as low of a baseline level of hippocampal neurogenesis as possible. Compounds (10 μM, i.c.v.) were administered for 7 days via subcutaneously implanted Alzet osmotic minipumps connected to a cannula directed into the left lateral ventricle, with implantation day designated as day 0. Starting on day 1, mice also received daily injections of BrdU (50 mg/kg, i.p.) at 9 am daily, for 6 days. Twenty four hours after the sixth BrdU injection, mice were transcardially perfused as described above.

OC(CNc1ccccc1)Cn1c2ccc(Br)cc2c2cc(Br)ccc21 (centres unmarked) [Example 45 Compound]
doublecortin (DCX) staining of newborn neurons ([1]; 20 mg/kg daily for 30 days by oral gavage): increased dramatically; also recorded: substantially increased | increase in BrdU+ cells compared to vehicle ([1]; 5 days after BrdU pulse): 25% | increase in abundance of BrdU+ cells in the dentate gyrus relative to vehicle ([1]; daily oral dose for 30 days starting 24 hours after BrdU pulse): 5 fold | BrdU+ cells versus vehicle, short term ([1]; oral for 30 days, 1 hour or 1 day after BrdU pulse): did not lead to an elevation in the level of BrdU-positive cells relative to vehicle; also recorded: No significant differences | dose giving full protection of mitochondrial membrane potential [2]: 1 mM

COc1cccc(NCC(F)Cn2c3ccc(Br)cc3c3cc(Br)ccc32)c1 (centres unmarked) [Example P7C3A20, N-(3-(3,6-dibromo-9H-carbazol-9-yl)-2-fluoropropyl)-3-methoxyaniline]
toxicity to HeLa cells (HeLa cells): no hERG channel binding, histamine receptor binding or toxicity to HeLa cells | histamine receptor binding (histamine receptor): no hERG channel binding, histamine receptor binding

OC(CNc1ccccc1)Cn1c2ccc(Br)cc2c2cc(Br)ccc21 (centres unmarked) [Example P7C3]
increase of DG neurogenesis (BrdU labeling) over vehicle [3]: about 100%
